{
  "source": "patent US20050004093A1",
  "about": "“Beta-lactamase inhibitor prodrug” (Pfizer Inc, priority 2003, published 2005)",
  "key": {"[1]": {"system": "clinical isolates of S. pneumoniae", "assay": "Susceptibility assay (NCCLS broth microdilution MIC), non-β-lactamase producing species", "settings": "Streptococcus pneumoniae"}, "[2]": {"system": "Streptococcus pneumoniae (02J1046)", "assay": "Gerbil otitis media model", "format": "in vivo", "settings": "single agent, oral, t.i.d. for 2 days, bacterial clearance day 4 post-challenge"}, "[3]": {"system": "Streptococcus pneumoniae (02J1095)", "assay": "Murine pneumonia model", "format": "in vivo", "settings": "single agent, oral, b.i.d. for 2 days, mice, survival day 10 post-challenge"}, "[4]": {"system": "Haemophilus influenzae (54A1218)", "assay": "Gerbil otitis media model", "format": "in vivo", "settings": "single agent, oral, t.i.d. for 2 days, bacterial clearance day 4 post-challenge"}, "[5]": {"system": "Moraxella catarrhalis (87A1115)", "assay": "Murine systemic infection model", "format": "in vivo", "settings": "single agent, oral, b.i.d. for 1 day, mice, survival day 4 post-challenge"}, "[6]": {"system": "Staphylococcus aureus (01A0400)", "assay": "Murine systemic infection model", "format": "in vivo", "settings": "single agent, oral, b.i.d. for 1 day, mice, survival day 4 post-challenge"}, "[7]": {"system": "Streptococcus pneumoniae (02J1095)", "assay": "Murine systemic infection model", "format": "in vivo", "settings": "single agent, oral, b.i.d. for 1 day, mice, survival day 4 post-challenge"}, "in vitro [8]": {"assay": "in vitro", "method": "(§1) The incubation consisted of 990 μl of plasma preincubated for 5 minutes at 37° C. in a 96-well heat block. The incubation was initiated with the addition of 10 gl of a 10 mM stock of compound in 100% methanol. Serial aliquots (100 μl) were removed and transferred to 200 μl of 75/25 acetonitrile/3% perchloric acid at 0, 1, 2, 5, 10, 20, 30, and 60 minutes. The samples were centrifuged, the supernatants transferred to injection vials, and 20 μl was injected onto the HPLC in-line with a LC/MS single quadropole mass spectrometer. The LC/MS system was run in the negative ion mode."}, "in vitro [9]": {"assay": "in vitro", "method": "as §1", "remark": "listed apart in the source"}, "[10]": {"target": "T1, Sme-I β-lactamase, Serratia S6 (Serratia marcescens, UniProt P52682)", "T1 sequence (P52682 28-294)": "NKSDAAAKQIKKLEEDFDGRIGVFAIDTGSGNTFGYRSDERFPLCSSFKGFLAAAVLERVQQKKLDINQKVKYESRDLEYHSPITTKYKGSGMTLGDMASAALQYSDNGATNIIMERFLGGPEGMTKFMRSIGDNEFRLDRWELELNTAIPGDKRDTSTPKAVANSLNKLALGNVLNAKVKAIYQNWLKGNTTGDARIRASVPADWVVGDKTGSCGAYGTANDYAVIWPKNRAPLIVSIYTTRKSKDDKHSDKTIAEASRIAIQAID", "assay": "biochemical", "text": "Biochemical activity against β-lactamases from other pathogens, including those associated with skin infections:"}, "in vitro [11]": {"assay": "in vitro", "method": "as §1", "remark": "listed apart in the source"}, "[12]": {"target": "T2, BRO-1 β-lactamase, M. catarrhalis 87A1115 (Moraxella catarrhalis, UniProt Q59514)", "T2 sequence (Q59514 26-313)": "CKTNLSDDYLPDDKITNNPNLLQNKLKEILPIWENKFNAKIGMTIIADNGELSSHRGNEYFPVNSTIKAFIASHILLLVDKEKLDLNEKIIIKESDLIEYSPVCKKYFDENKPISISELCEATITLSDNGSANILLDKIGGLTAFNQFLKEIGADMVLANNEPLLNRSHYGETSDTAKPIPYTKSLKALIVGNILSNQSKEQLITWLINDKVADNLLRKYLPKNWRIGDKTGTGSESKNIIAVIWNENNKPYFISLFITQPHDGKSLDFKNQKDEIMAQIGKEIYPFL", "assay": "biochemical"}, "in vitro [13]": {"assay": "in vitro", "method": "as §1", "remark": "listed apart in the source"}, "[14]": {"target": "T3, ROB-1 β-lactamase, H. influenzae ATCC43334 (Haemophilus influenzae, UniProt P67918)", "T3 sequence (P67918 34-305)": "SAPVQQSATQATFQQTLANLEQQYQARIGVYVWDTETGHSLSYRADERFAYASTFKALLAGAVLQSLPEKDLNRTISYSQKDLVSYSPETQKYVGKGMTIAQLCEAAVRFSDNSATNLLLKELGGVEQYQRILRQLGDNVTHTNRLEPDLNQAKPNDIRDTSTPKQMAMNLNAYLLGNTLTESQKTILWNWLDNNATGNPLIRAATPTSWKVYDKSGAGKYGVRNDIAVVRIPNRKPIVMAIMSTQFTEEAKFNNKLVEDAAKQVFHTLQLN", "assay": "biochemical"}, "in vitro [15]": {"assay": "in vitro", "method": "as §1", "remark": "listed apart in the source"}, "[16]": {"target": "T4, BRO-2 β-lactamase, M. catarrhalis 87A1178 ATCC43617 (Moraxella catarrhalis, UniProt Q59514)", "T4 sequence (Q59514 1-313 D293G)": "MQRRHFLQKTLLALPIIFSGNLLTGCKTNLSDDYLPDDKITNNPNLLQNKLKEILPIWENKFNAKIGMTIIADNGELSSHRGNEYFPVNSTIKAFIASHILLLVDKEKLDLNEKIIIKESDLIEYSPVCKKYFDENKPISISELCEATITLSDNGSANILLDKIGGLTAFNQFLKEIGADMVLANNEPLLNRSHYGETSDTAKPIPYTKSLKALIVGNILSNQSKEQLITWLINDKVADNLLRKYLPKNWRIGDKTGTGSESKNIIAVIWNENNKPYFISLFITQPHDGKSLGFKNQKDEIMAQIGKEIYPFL", "assay": "IC50 against β-lactamase in cell extract (colorimetric, chromogenic cephalosporin)", "format": "biochemical", "settings": "BRO-2, M. catarrhalis 87A1178 ATCC43617 cell extract"}, "esterases": {"system": "esterases", "assay": "Hydrolysis in the presence of esterases", "format": "in vitro ADME", "description": "(§2) Based upon this correlation, the rat was used to predict human absorption. […] Thus, oral bioavailability assessments in rats should correlate well with the fraction absorbed in humans."}, "[17]": {"assay": "Hepatic extraction, rat hepatocytes", "format": "in vitro ADME", "description": "as §2"}, "[18]": {"assay": "Hepatic extraction, human hepatocytes", "format": "in vitro ADME", "description": "as §2"}, "[19]": {"settings": "administered orally, rodents, preclinical studies; cited from earlier work"}},
  "note": "pIC50: −log10 of the molar value. Where two headings read alike, the source gives them in different places.",
  "data": [
    {"compound": "CC1(C)S[C@@H]2[C@H](NC(=O)[C@H](N)c3ccc(O)cc3)C(=O)N2[C@H]1C(=O)O", "note": "[Amoxicillin, amoxicillin]", "values": [
      {"measurement": "MIC", "setting": "[1]; read-out: Amoxicillin MICs, 12 penicillin-susceptible S. pneumoniae isolates", "result": "0.0156 to 0.06", "unit": "µg/mL"},
      {"measurement": "MIC", "setting": "[1]; read-out: Amoxicillin MICs, 21 penicillin-intermediate S. pneumoniae", "result": "0.03 to 1", "unit": "µg/mL"},
      {"measurement": "MIC50", "setting": "[1]; read-out: amoxicillin MIC50", "result": 2, "unit": "µg/mL"},
      {"measurement": "MIC90", "setting": "[1]; read-out: amoxicillin MIC90", "result": 4, "unit": "µg/mL"},
      {"measurement": "ED50", "setting": "[2]", "result": "> 50", "unit": "mg/kg"},
      {"measurement": "ED50", "setting": "[3]", "result": "< 100", "unit": "mg/kg"},
      {"measurement": "ED50", "setting": "[4]", "result": "> 50", "unit": "mg/kg"},
      {"measurement": "ED50", "setting": "[5]", "result": "> 200", "unit": "mg/kg"},
      {"measurement": "ED50", "setting": "[6]", "result": "> 200", "unit": "mg/kg"},
      {"measurement": "ED50", "setting": "[7]", "result": "< 100", "unit": "mg/kg"}
    ]},
    {"compound": "O=C(O)[C@H]1/C(=C/CO)O[C@@H]2CC(=O)N21", "note": "[Clavulanate, lithium clavulanate]", "values": [
      {"measurement": "half-life at 100 μM", "setting": "in vitro [8]; monkey, plasma", "result": 216, "unit": "min"},
      {"measurement": "half-life at 100 μM", "setting": "in vitro [9]; human, plasma", "result": 156, "unit": "min"},
      {"measurement": "pIC50", "setting": "[10]", "result": 4.71},
      {"measurement": "half-life at 100 μM", "setting": "in vitro [11]; mouse, plasma", "result": "> 240", "unit": "min"},
      {"measurement": "pIC50", "setting": "[12]", "result": 6.85},
      {"measurement": "half-life at 100 μM", "setting": "in vitro [13]; rat, plasma", "result": 198, "unit": "min"},
      {"measurement": "pIC50", "setting": "[14]", "result": 7.40},
      {"measurement": "half-life at 100 μM", "setting": "in vitro [15]; dog, plasma", "result": 168, "unit": "min"},
      {"measurement": "pIC50", "setting": "[16]", "result": 6.96}
    ]},
    {"compound": "CC1(C)[C@H](C(=O)[O-])N2C(=O)[C@@H](CO)[C@H]2S1(=O)=O.[Na+]", "note": "[Na-HMPAS, 4-Thia-1-azabicyclo [3,2,0]heptane-2-carboxylic acid, 6-(hydroxymethyl)-3,3-dimethyl-7-oxo-,4,4-dioxide, monosodium salt, (2S,5R,6R)]", "values": [
      {"measurement": "half-life at 100 μM", "setting": "in vitro [8]", "result": "> 240", "unit": "min"},
      {"measurement": "half-life at 100 μM", "setting": "in vitro [9]", "result": "> 240", "unit": "min"},
      {"measurement": "pIC50", "setting": "[10]", "result": 6.17},
      {"measurement": "half-life at 100 μM", "setting": "in vitro [11]", "result": 234, "unit": "min"},
      {"measurement": "pIC50", "setting": "[12]", "result": 6.84},
      {"measurement": "half-life at 100 μM", "setting": "in vitro [13]", "result": 204, "unit": "min"},
      {"measurement": "pIC50", "setting": "[14]", "result": 8.00},
      {"measurement": "half-life at 100 μM", "setting": "in vitro [15]", "result": "> 240", "unit": "min"},
      {"measurement": "pIC50", "setting": "[16]", "result": 6.49}
    ]},
    {"compound": "CC1(C)[C@H](C(=O)OCOC(=O)OC2CCOCC2)N2C(=O)[C@@H](CO)[C@H]2S1(=O)=O", "note": "[Prodrug 1, 4-Thia-1-azabicyclo[3.2.0]heptane-2-carboxylic acid, 6-(hydroxymethyl)-3,3-dimethyl-7-oxo-,[[[(tetrahydro-2H-pyran-4-yl)oxy]carbonyl]oxy]methyl ester, 4,4-dioxide (2S,5R,6R)]", "values": [
      {"measurement": "half-life at 100 μM", "setting": "in vitro [9]; human, plasma", "result": 6.7, "unit": "min"},
      {"measurement": "ED50", "setting": "[3]", "result": "> 25", "unit": "mg/kg"},
      {"measurement": "melting point", "result": 136, "unit": "°C"},
      {"measurement": "half-life at 100 μM", "setting": "in vitro [11]; mouse, plasma", "result": "< 2", "unit": "min"},
      {"measurement": "time to hydrolysis", "setting": "esterases", "result": "within a few minutes"},
      {"measurement": "half-life at 100 μM", "setting": "in vitro [13]; rat, plasma", "result": "< 2", "unit": "min"},
      {"measurement": "ED50", "setting": "[5]", "result": "> 25", "unit": "mg/kg"},
      {"measurement": "half-life at 100 μM", "setting": "in vitro [15]; dog, plasma", "result": 10, "unit": "min"},
      {"measurement": "ED50", "setting": "[6]", "result": "> 25", "unit": "mg/kg"},
      {"measurement": "ED50", "setting": "[7]", "result": "> 25", "unit": "mg/kg"}
    ]},
    {"compound": "CC1(C)C(C(=O)O)N2C(=O)C(CO)C2S1(=O)=O", "note": "(stereo not drawn) [Prodrug 6-β-HMPAS, 6-β-hydroxymethylpenicillanic acid sulfone]", "values": [
      {"measurement": "hepatic extraction", "setting": "[17]", "result": "minimal"},
      {"measurement": "hepatic extraction", "setting": "[18]", "result": "minimal"},
      {"measurement": "oral absorption", "setting": "[19]", "result": "very poorly absorbed"}
    ]}
  ]
}
